Assays:
AR = experiment: Probasin- and PSA-luciferase reporter in 293T cells; assay type: cell-based; conditions: 0-20 µM
[1] = system: K562, U937, NCI-H82, and NCCIT cancer cells; experiment: Co-treatment with paclitaxel or camptothecin, MTS assay; assay type: cell-based; conditions: 5-20 µM T60 co-treatment
Procedure: (§1) Cell proliferation rates were measured by using the CellTitre 96 AqueousOne kit (Promega) and bromodeoxyuridine (BrdU) assay kit (Millipore) according to the manufacturer’s protocol as we have described ([51]). Cytotoxicity was evaluated by using the commercial kit (CAT# 8078, ThermoFisher). Culture media was collected and used to measure lactate dehydrogenase (LDH) levels by a colorimetric method following the manufacture’s protocol (ThermoFisher). Cell cycling was assessed by using BrdU incorporation into S-phase DNA by using the APC BrdU flow kit (BD Pharmingen; Franklin Lakes, New Jersey) according to the manufacturer’s protocol. 1 mM of BrdU was added to cells and incubated for 6 h. Cells were incubated with anti-BrdU antibody and stained with 7-AAD before processing the cells for flow cytometry ([52]). Immunoblotting assays followed the standard protocol as we have reported ([51]–[53]).

K562 cells = experiment: Cell proliferation, MTS assay; assay type: cell-based; conditions: 0-20 µM, 0-72 h
Procedure: as §1

HeLa cells [2] = experiment: FACS cell cycle assay; assay type: cell-based; conditions: 20 µM, 48 h
Procedure: as §1

TOP2B [3] = biological target: T1, TOP2B (Homo sapiens, UniProt Q02880); experiment: DNA cleavage assay; assay type: biochemical; design: full-length human TOP2A and TOP2B protein (TopoGEN and Inspiralis respectively); purchased Inspiralis HTB205; conditions: co-treatment with 200 µM etoposide; 1, 100, 200 µM
Procedure: The reactions were incubated in 37C for 30 min and stopped by adding 2 µl of 10% SDS and 1 µl of 250 mM of EDTA, followed by the addition of 50 µg/ml of proteinase K at 45C for 30 min. The reaction was then resolved by electrophoresis on a 1% agarose gel containing […] ethidium bromide in TAE buffer at 60 V. DNA bands were visualized using a gel imager (Gel Doc™ EZ System) and quantified by using the Image Studio™ Lite Quantification Software.

K562 xenografts = experiment: K562 xenografts, intra-tumor polymeric paste; assay type: in vivo, nude mice (Nu/Nu); conditions: single 30 µl paste, 1% T60 or T633, 0.3% etoposide
Procedure: The polymeric paste was prepared with 50% poly-DL-lactide-coglycolide (PLGA) and 50% PEG 300 (w/w) as we have reported ([57]). […] The density of the paste was determined to be 1.2 g/ml ( ± 3%). One million K562 cells were inoculated subcutaneously in bilateral flanks of nude mice (Nu/Nu). […] Tumor volumes were measured every three days and were calculated by length × width × depth × 0.5236. Mice were euthanized when tumor volumes reached 15% of body weight or weight loss >20% occurred. The remaining mice were euthanized after the control group was euthanized. All animal procedures were under the guidelines of the Canadian Council on Animal Care and were approved by the UBC Animal Care Committee (# A19-0256).

TOP2B [4] = biological target: T1, TOP2B; experiment: K-DNA decatenation assay; assay type: biochemical; design: full-length human TOP2A and TOP2B protein (TopoGEN and Inspiralis respectively); purchased Inspiralis HTB205; conditions: densitometry of D-DNA bands; read-out: IC50, inhibition of TOP2B K-DNA decatenation
Procedure: The human TOP2 assay kit (#TG1001, TopoGEN, Buena Vista, CO) and TOP2B (HTB205, Inspiralis, UK) were used for K-DNA decatenation assays. […] The reaction was incubated at 37C for 2 h after which 4 µl stop solution (5× buffer is 5% Sarkosyl, 0.125% bromophenol blue, 25% glycerol) was added. The reaction was resolved by electrophoresis on a 0.8% agarose gel at 60 V and stained with 0.5 µg/ml ethidium bromide for 15 min. DNA bands were visualized using a gel imager (Gel Doc™ EZ System) and quantified using the Image Studio™ Lite Quantification Software.

[5] = system: AR proteins in LNCaP cells; experiment: AR nuclear localization, cytoplasmic/nuclear western blotting; assay type: cell-based; conditions: 20 µM, 24 h
HeLa cells [6] = experiment: LDH cytotoxicity assay; assay type: cell-based; conditions: 0–20 µM, 48 h
Procedure: as §1

TOP2A = TOP2A (Homo sapiens, UniProt P11388); experiment: DNA relaxation assay (supercoiled pHOT-1 plasmid); assay type: biochemical; design: full-length human TOP2A and TOP2B protein (TopoGEN and Inspiralis respectively); purchased TopoGEN TG1001 (human TOP2 assay kit)
Procedure: The human TOP2A and TOP2B were used to perform DNA relaxation assays. […] The reaction was incubated at 37C for 2 h and stopped by adding 2 µl of 10% SDS and 1 µl of 250 mM of EDTA, followed by the addition of 50 µg/ml of proteinase K at 45 C for 1 h. The reaction was then resolved by electrophoresis on a 1% agarose gel at 80 V and stained with 0.5 µg/ml ethidium bromide for 15 min. DNA bands were visualized using a gel imager (Gel Doc™ EZ System) and quantified using the Image Studio™ Lite Quantification Software.

TOP2A (431–1193) = biological target: T2, TOP2A (431–1193) (Homo sapiens, UniProt P11388); experiment: Electrophoresis mobility shift assay (EMSA); assay type: binding; conditions: 200 µM; 30 µM protein, 300 nM 5ZRF oligo
T2 construct: was incorporated with TOP2A (431–1193); made in house; host or cells: Escherichia coli BL21 co-expressing biotin ligase
Procedure: EMSA followed the standard protocols as we and others described with minor modifications ([54]–[56]). The double-strand DNA oligo, 5ZRF (AGCCGAGCTGCAGCTCGGCT labeled by IRDye700) was purchased from IDT (Coralville, USA). Human TOP2 (431–1193), TOP2A (TopoGEN) or TOP2B (Inspiralis) proteins were incubated with 300 nM of 5ZRF oligo in a standard 20 µl EMSA reaction in a reaction buffer containing 20 mM HEPES-NaOH, pH 7.4, 2 mM DTT, 3 mM MgCl2, 0.05% NP-40, protease inhibitors, and 0.1 µg poly[dI:dC]. After incubation for 30 min at 37C, reactions were loaded onto 4% non-denatured polyacrylamide gel in 0.5× TBE buffer. The DNA oligo bands were visualized by using the Li-Cor Odyssey 9120 Infrared Imaging System.

[7] = system: phospho-H2AXγ protein levels in K562 cells; experiment: Immunoblotting of phospho-H2AXγ (DNA damage); assay type: cell-based; conditions: 4 h
Procedure: as §1

Chain of TOP2A (P11388 whole entry): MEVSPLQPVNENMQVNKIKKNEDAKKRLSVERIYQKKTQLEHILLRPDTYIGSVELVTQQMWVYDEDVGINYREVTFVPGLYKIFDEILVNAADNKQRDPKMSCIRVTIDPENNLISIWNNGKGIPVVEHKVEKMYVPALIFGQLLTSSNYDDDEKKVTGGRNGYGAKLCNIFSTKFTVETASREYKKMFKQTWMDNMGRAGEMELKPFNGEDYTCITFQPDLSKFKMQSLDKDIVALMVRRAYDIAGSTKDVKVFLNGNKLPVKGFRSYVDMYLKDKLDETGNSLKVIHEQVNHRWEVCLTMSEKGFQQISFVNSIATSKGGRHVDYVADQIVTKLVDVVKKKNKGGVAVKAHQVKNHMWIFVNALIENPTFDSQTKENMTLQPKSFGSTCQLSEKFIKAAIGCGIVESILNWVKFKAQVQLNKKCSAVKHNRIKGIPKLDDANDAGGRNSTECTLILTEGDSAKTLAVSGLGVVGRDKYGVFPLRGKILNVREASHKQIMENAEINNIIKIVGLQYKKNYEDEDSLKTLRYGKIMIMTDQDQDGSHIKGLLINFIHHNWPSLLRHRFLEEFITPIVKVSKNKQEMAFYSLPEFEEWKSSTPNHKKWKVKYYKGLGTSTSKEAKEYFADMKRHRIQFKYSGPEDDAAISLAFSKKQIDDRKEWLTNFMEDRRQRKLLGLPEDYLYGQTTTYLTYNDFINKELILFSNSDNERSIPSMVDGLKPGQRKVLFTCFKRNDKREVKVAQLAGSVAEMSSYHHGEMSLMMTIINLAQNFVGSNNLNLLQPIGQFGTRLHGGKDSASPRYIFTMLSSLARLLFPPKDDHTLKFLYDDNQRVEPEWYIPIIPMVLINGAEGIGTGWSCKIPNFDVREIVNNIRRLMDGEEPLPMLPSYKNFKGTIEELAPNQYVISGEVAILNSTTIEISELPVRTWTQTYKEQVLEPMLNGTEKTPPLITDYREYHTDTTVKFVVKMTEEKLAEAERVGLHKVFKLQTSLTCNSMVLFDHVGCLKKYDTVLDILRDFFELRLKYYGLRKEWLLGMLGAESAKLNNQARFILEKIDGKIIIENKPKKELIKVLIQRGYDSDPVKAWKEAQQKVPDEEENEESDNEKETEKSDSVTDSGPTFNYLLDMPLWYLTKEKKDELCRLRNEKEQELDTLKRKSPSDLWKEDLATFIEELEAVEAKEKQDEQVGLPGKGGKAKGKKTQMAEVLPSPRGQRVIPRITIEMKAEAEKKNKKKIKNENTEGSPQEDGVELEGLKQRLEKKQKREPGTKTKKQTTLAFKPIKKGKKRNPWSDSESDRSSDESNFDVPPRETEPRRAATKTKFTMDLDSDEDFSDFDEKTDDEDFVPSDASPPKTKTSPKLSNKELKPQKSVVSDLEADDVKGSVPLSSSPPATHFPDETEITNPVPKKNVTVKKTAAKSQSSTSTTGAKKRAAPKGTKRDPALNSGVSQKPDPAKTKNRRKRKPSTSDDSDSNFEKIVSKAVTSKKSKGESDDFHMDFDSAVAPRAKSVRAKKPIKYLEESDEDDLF
T1 sequence (Q02880 whole entry): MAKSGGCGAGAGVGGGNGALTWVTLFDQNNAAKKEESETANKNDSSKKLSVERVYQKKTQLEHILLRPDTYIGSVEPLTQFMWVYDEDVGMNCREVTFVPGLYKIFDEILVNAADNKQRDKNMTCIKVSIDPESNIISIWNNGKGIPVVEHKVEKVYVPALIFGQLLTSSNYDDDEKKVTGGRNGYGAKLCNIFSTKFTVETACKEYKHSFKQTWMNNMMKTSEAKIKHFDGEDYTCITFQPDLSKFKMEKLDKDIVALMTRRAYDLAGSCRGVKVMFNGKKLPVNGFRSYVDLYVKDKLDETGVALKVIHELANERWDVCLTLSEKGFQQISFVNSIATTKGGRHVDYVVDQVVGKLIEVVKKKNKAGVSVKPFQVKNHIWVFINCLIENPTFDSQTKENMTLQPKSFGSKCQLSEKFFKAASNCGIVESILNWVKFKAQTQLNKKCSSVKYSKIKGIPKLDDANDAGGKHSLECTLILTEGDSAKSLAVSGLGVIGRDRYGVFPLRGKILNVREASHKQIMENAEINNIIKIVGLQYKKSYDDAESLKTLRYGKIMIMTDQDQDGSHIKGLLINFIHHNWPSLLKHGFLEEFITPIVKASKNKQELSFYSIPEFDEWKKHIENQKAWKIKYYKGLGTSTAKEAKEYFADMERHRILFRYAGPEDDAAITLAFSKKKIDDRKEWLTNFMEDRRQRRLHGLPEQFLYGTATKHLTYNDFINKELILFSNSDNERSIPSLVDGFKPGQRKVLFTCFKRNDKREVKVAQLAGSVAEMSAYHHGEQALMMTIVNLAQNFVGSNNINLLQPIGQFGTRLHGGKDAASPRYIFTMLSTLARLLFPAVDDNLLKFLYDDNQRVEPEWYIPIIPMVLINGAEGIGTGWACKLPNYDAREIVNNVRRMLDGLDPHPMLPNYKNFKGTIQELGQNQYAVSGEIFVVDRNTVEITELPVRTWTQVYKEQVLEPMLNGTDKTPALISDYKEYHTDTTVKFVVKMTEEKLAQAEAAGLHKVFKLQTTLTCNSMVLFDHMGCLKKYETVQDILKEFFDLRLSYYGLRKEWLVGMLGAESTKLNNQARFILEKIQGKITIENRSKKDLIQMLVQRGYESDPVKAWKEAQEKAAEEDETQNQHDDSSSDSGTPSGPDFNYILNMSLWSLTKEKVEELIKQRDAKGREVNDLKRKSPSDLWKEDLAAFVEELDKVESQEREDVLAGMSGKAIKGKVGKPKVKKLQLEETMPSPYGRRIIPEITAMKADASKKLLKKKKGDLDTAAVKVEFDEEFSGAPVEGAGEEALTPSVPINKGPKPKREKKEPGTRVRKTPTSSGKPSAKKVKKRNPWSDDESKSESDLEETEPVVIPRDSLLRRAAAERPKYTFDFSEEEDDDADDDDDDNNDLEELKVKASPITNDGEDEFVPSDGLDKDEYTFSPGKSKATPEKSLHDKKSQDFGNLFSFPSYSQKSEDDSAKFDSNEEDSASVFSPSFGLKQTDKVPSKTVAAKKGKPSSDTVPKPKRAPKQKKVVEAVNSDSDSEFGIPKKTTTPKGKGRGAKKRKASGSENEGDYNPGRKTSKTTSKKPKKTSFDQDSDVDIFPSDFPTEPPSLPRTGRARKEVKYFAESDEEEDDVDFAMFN
T2 sequence (P11388 431-1193): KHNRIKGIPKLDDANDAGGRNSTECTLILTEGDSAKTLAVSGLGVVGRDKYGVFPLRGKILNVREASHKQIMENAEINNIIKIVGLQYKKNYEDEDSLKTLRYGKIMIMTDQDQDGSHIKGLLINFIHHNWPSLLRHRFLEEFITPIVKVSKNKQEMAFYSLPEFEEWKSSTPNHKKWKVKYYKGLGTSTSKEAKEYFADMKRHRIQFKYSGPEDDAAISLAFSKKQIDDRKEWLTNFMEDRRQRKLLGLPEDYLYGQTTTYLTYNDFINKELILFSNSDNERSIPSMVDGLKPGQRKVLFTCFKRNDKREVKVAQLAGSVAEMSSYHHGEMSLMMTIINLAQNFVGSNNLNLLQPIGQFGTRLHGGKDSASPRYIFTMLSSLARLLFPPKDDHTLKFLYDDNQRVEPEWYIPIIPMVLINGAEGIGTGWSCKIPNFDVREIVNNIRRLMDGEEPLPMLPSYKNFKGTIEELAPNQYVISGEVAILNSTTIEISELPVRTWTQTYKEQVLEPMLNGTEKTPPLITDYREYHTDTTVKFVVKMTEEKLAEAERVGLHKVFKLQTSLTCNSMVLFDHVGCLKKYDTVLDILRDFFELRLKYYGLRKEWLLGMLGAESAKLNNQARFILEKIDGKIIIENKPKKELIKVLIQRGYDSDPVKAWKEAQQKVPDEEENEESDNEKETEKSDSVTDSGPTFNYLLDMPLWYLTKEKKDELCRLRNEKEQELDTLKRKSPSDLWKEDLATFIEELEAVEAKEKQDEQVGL

O=C(Nc1ccc(Nc2ccccc2)cc1)c1ccc[nH]c1=S [T60]
Luciferase activities driven by probasin and PSA promoters, AR (AR): inhibited luciferase activities | Effect on effectiveness of paclitaxel and camptothecin in suppressing cancer cell growth [1]: enhanced the effectiveness of these drugs | K562 cell proliferation (K562 cells): inhibited K562 cell proliferation in a dose- and time-dependent manner | Cell cycle distribution (HeLa cells [2]): reduced at the G1 phase, but accumulated at S and G2/M phases | Prevention of etoposide-induced DNA cleavage, TOP2B (TOP2B [3]): prevented | Tumor growth at the end of two weeks (K562 xenografts): strongly inhibit tumor growth comparable to etoposide | IC50 (TOP2B [4]): ~3 µM | Nuclear localization of AR proteins, LNCaP [5]: reduced nuclear localization | Cytotoxicity (LDH release) (HeLa cells [6]): low cytotoxicity | Inhibition of TOP2A activity changing supercoiled into relaxed plasmid DNA (TOP2A; Figure 3B): inhibited | IC50 (TOP2A; densitometry of SC bands, read-out: IC50, inhibition of TOP2A plasmid DNA relaxation): ~4.7 µM | Abolishment of TOP2A (431–1193)-induced upshifted DNA band (TOP2A (431–1193)): abolished | Effect on etoposide-induced phospho-H2AXγ protein levels ([7]; 20 µM, co-treated with 10–20 µM etoposide): inhibited etoposide-induced phospho-H2AXγ protein levels | Intracellular DNA damage (phospho-H2AXγ protein levels) ([7]; 10–20 µM): did not cause intracellular DNA damage

Reference: article PMC7883873, “Discovery of New Catalytic Topoisomerase II Inhibitors for Anticancer Therapeutics” (Frontiers in Oncology, 2021)
